From patent US20250197425A1, “2,6,9-TRISUBSTITUTED PURINES” (ASTRAZENECA AB, priority 2022, published 2025) come the findings set out here.

The subject of data set [1] is NPM phosphorylation (Thr199, CDK2-cyclin E complex). The data set can be described thus: NPM phosphorylation imaging assay in MCF-7 cells. The format is cell-based. As to conditions: Homo sapiens, 4N DNA cells. As to the method:
Compounds were tested to assess the effects of CDK2 inhibition in a cellular context. […] During the cell cycle, the CDK2-cyclin E complex phosphorylates NPM at Thr199 which is a prerequisite step for initiation of centrosome duplication.
The cells were fixed by addition of 40 μL/well of 8% paraformaldehyde and incubated at room temperature for 10 minutes. The plates were washed three times with 50 μL/well PBS using a Biotek EL406 plate washer and then permeabilized for 10 minutes at room temperature in 0.3% Triton X100 in PBS. After washing as before, the plates were blocked using 30 μL/well of 2% BSA (w/v) in PBS-T for at least 30 minutes at room temperature. […] Cells containing 4N DNA were selected using the Hoechst staining. Phospho-NPM levels were normalized to controls and the IC50 values of test compounds determined using Genedata Screener software.

Data set [2] concerns the target CDK1:CCNB1 (Homo sapiens (Human), UniProt P06493). The data set can be described thus: NanoBRET assay in MCF-7 cells, CDK1. The format is cell-based. As to conditions: NanoBRET, transfected MCF-7 cells, 2 hours; n = 1 or average; read-out: CDK1 IC50. As to the method: (§1) Compounds were tested in breast cancer cell line MCF-7 to assess inhibition of CDK1, CDK2, and CDK4 activity. MCF-7 cells transiently transfected with CDK1:CCNB1, CDK2:CCNE1, or CDK4:CCND1 were harvested at a density of 1E5 cells/mL in complete media, seeded 20 μL/well into 384-well Greiner 784080 plates using a Multidrop Combi, and incubated overnight at 37° C. and 5% CO2. The next day media were evacuated from the wells using the Bluewasher centrifugal plate washer (Bluecatbio) and 10 μL/well phenol red free OptiMEM was then added using a Multidrop Combi. […] Immediately after compound addition, a Tecan HP300 dispensor was used to dispense the relevant NanoBRET™ tracer to the CDK1 wells (12.5 nl, 400 μM, NanoBRET™ TE Tracer K-9), the CDK2 wells (12.5 nl, 200 μM, NanoBRET™ TE Tracer K-9), and the CDK4 wells (8 nl, 100 μM, NanoBRET™ TE Tracer K-7) and the plates were incubated for 2 hours at 37° C. and 5% CO2. The plates were allowed to cool for 10 minutes at room temperature and 5 μL/well of TE Nano-Glo®Substrate/Inhibitor at 2.4 μM and 1:500 respectively (N2162 Promega) was added. The plates were incubated in subdued lighting for 10 minutes and then read on a Pherastar FS plate reader (BMG Technologies) using a NanoBRET™ filter module (460±80 nm/610 nm-LP). The ratio values were normalized to controls and the IC50 values of test compounds determined using Genedata Screener software.
In general terms: Bioluminescence resonance energy transfer reports proximity on the nanometre scale.

A short description of data set [3]: CLint assessment in human liver microsomes (HLM). The data set is classed as in vitro ADME. As to conditions: 1 μM. As to the method: After a preincubation with NADPH for 8 minutes, reactions were initiated through the addition of the test compound (final volume 250 μl) and incubated at 37° C. in a water bath for 30 minutes. […] Samples were shaken at 800 rpm for 2 minutes and centrifuged at 4000 rpm for 20 minutes at 4° C. to pellet precipitated protein. The supernatant fraction was diluted 1:5 with deionized water, shaken at 1000 rpm for 2 minutes, and further diluted 1:1 with deionized water. Samples were analyzed by LC-MS/MS. The t1/2 and the CLint of the compounds incubated in the LM, HLM, and HμREL assays as described above were calculated according to the following equations: […] where V (μl/×10^6 cells or mg protein) is the incubation volume (μl) divided by the number of cells (×10^6) or microsomal protein content (mg) in the incubation.
In general terms: Liver microsomes are vesicles of endoplasmic reticulum, rich in cytochrome P450 enzymes.

Data set [4] concerns POLR2A Ser2 phosphorylation (CDK9). The experiment in a line: POLR2A Ser2 phosphorylation imaging assay in MCF-7 cells. The data set is classed as cell-based. As to conditions: Homo sapiens, MCF7, 2 h, MCF-7 cells, 2 hours; read-out: POLR2A Ser2 phosphorylation IC50. The protocol: Compounds were tested to assess their effect on CDK9 activity in a cellular context. […] During the cell cycle, CDK9 is a component of a multiprotein complex that phosphorylates POLR2A Ser2 which results in transcription elongation.
[…] were fixed by addition of 40 μL/well of 8% paraformaldehyde and incubated for 10 minutes at room temperature. The plates were washed three times with 50 μL/well PBS using a Biotek EL406 plate washer and then permeabilized for 10 minutes at room temperature in 0.3% Triton X100 in PBS. After washing as before, the plates were blocked using 30 μL/well of 2% BSA (w/v) in PBS-T for over 30 minutes at room temperature. […] After washing in PBS as before, leaving each well in 40 μL of PBS, the plates were sealed and imaged on a Cell Insight imaging system (Thermo) with a 10× objective and 2 fields of view per well. POLR2A Ser2levels were normalized to controls and the IC50 values of test compounds determined using Genedata Screener software.

Data set [5] is described as follows: Aqueous thermodynamic solubility, shake-flask. Conditions: aqueous phosphate buffer, 25 °C, pH 7.4, aqueous buffer, thermodynamic from solid, phosphate buffer 0.1 M, pH 7.4, 24 hours. The data set is classed as physicochemical. The protocol:
The DMSO was evaporated and the dried compounds were equilibrated in glass vials in aqueous phosphate buffer (0.1 M, pH 7.4) for 24 hours at 25° C. under constant stirring. The portion with the dissolved compound was then separated from the remainder through a double centrifugation with a tip wash in between to ensure that no residues of the dried compound were interfering. The solutions were diluted with purified water before quantification using UPLC/MS/MS.

Data set [6] concerns OVCAR3 cells. The data set can be described thus: Cellular proliferation EdU assay, OVCAR3. The format is cell-based, human. Conditions: Homo sapiens, OVCAR-3, 48 h, EdU assay, two days; read-out: OVCAR3 IC50. The protocol:
(§2) Compounds were tested to assess inhibition of cellular proliferation in the breast cancer cell line MCF-7 and the CCNE1-amplified ovarian cell line OVCAR3.
(§3) MCF-7 and OVCAR3 cells in RPMI supplemented with 10% Fetal bovine serum were seeded into 384-well plates (Greiner, Kremsmunster, Austria; 781091), 30 μL/well, using a WellMate. The MCF7 and OVCAR3 cells were seeded at 800 and 1200 cells/well, respectively. Test compounds were added to the wells using an Echo 555 liquid handler and the plates were placed in incubator maintained at 37° C. and 5% CO2 and incubated for two days. On Day 2, an EdU assay was performed following the manufacturer's protocol (Thermo Fisher, C10351). The cells were read on an Acumen eX3 instrument. The IC50 values of test compounds were determined in Genedata by assessing the ratio of signal intensity at 488 nm to the area of signal at 405 nm.

The subject of data set [7] is MCF-7 cells. The data set can be described thus: Cellular proliferation EdU assay, MCF-7. Conditions: Homo sapiens, MCF7, 48 h, EdU assay, two days; read-out: MCF-7 IC50. The data set is classed as cell-based. As to the method:
as §2, §3

Data set [8] has as its target CDK2:CCNE1 (Homo sapiens (Human), UniProt P24941). The data set can be described thus: NanoBRET assay in MCF-7 cells, CDK2. The format is cell-based. As to conditions: transfected MCF-7 cells, 2 hours, n = 1 or average. The protocol:
as §1, with “MCF-7 cells transiently transfected with CDK1:CCNB1, CDK2:CCNE1, or CDK4:CCND1 were harvested at a density of 1E5 cells/mL in complete media, seeded 20 μL/well into 384-well Greiner 784080 plates using a Multidrop Combi, and incubated overnight at 37° C. and 5% CO2.” left out, “The plates were allowed to cool for 10 minutes at room temperature and 5 μL/well of TE Nano-Glo®Substrate/Inhibitor at 2.4 μM and 1:500 respectively (N2162 Promega) was added.” left out

Data set [9] concerns the target CDK4:CCND1 (Homo sapiens (Human), UniProt P11802). The data set can be described thus: NanoBRET assay in MCF-7 cells, CDK4. The data set is classed as cell-based. As to conditions: NanoBRET, transfected MCF-7 cells, 2 hours; n = 1 or average; read-out: CDK4 IC50. As to the method: as §1

Each structure is given as a SMILES string. ≈ marks a conversion by molar mass, not a printed value.

CDK4:CCND1, sequence (P11802 whole entry): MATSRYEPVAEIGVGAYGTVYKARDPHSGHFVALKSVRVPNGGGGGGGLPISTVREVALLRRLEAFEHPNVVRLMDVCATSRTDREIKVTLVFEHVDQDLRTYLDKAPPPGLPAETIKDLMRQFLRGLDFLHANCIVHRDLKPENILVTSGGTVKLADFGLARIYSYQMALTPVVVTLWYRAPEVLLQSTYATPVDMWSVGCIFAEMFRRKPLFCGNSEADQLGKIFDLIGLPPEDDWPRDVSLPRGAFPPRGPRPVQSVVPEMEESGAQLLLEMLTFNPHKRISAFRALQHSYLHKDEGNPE
CDK4:CCND1, sequence (P24385 whole entry partner): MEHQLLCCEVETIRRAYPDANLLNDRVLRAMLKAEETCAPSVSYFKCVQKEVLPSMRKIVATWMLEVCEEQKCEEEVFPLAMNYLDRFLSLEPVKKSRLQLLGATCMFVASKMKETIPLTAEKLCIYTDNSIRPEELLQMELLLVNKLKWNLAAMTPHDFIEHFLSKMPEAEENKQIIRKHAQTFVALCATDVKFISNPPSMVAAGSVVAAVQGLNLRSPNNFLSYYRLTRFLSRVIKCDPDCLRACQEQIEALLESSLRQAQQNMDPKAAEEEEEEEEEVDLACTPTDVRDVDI
CDK1:CCNB1, sequence (P06493 whole entry): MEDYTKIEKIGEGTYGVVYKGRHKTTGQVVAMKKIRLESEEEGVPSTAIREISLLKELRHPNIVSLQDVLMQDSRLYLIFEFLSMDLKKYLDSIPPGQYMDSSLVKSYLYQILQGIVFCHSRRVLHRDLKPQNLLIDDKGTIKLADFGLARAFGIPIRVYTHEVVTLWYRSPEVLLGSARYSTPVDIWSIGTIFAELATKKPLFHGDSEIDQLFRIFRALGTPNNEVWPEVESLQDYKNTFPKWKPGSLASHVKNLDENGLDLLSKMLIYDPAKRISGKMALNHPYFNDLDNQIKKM
CDK1:CCNB1, sequence (P14635 whole entry partner): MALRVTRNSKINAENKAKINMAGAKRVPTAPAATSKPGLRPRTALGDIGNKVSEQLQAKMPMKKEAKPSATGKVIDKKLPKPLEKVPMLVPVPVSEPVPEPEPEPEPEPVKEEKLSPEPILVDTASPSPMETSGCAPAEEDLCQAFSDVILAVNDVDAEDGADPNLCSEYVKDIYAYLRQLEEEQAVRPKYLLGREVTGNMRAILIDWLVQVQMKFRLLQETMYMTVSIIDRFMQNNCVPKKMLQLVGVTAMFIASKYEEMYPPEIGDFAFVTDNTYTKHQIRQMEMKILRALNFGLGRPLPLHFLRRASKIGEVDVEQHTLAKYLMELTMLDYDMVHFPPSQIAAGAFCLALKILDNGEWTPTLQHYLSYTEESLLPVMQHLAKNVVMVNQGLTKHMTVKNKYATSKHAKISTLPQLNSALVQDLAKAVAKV

Broadly, the IC50 is the concentration needed to halve the response being measured. A word on the solubility: it is the dissolved amount per volume that the medium holds. For `CCn1cnc2c(N[C@H]3CCN(S(=O)(=O)NC)C3)nc(N[C@@H](CC(F)(F)F)[C@@H](C)O)nc21` (relative stereo) [Example 21, (S)-3-((9-ethyl-2-(((3S*,4R*)-1,1,1-trifluoro-4-hydroxypentan-3-yl)-amino)-9H-purin-6-yl)amino)-N-methylpyrrolidine-1-sulfonamide], the IC50 in [1] (MCF7, 2 hours) is 0.326 µM; in data set [2], 3.83 µM; in [4], above 30 µM; in data set [6] it was 0.578 µM; in data set [7] it was 1.45 µM; in data set [8], 0.049 µM. The IC50 in [9] was above 29.7 µM. Also, the “HLM CLint” value in data set [3] came to 34.1 µL/min/mg. In [5], this molecule displayed a solubility at 24 h of 606 µM (≈ 291 µg/mL).
Regarding `CCNS(=O)(=O)N1C[C@@H](F)[C@H](Nc2nc(N[C@@H](CO)C3CC3)nc3c2ncn3C)C1` (relative stereo) [Example 26, (3R*,4R*)-3-((2-(((R)-1-cyclopropyl-2-hydroxyethyl)amino)-9-methyl-9H-purin-6-yl)amino)-N-ethyl-4-fluoropyrrolidine-1-sulfonamide], the IC50 in data set [1] (MCF7, 2 h) turned out to be 0.435 µM; in data set [2], 0.651 µM; in data set [4], 11.4 µM; in data set [6] it was 0.496 µM; in data set [7] it was 0.96 µM; in [8], 0.039 µM. For the same molecule, the IC50 in data set [9] was determined as 8.1 µM. Moreover, in data set [3], the “HLM CLint” value amounted to 15.2 µL/min/mg. Further, in data set [5], the solubility at 24 h is 101 µM (≈ 44.7 µg/mL).
As to `CC[C@H](Nc1nc(N[C@@H]2CN(S(=O)(=O)NC)C[C@H]2F)c2ncn(CC)c2n1)[C@@H](C)O` (relative stereo) [Example 52, (3R*,4R*)-3-((9-ethyl-2-(((2R,3S)-2-hydroxypentan-3-yl)amino)-9H-purin-6-yl)amino)-4-fluoro-N-methylpyrrolidine-1-sulfonamide], the IC50 in data set [1] (MCF7, 2 h) worked out at 0.151 µM; in [2], 1.2 µM; in data set [4] it was 11.1 µM; in [6], 0.252 µM; in [7], 1.02 µM; in [8], 0.021 µM. Besides, the IC50 in data set [9] came to 16.8 µM. In addition, the “HLM CLint” value in data set [3] turned out to be 21.1 µL/min/mg. Further, the solubility at 24 h in data set [5] was found to be 300 µM (≈ 133 µg/mL).
For the molecule `CC(C)[C@H](CO)Nc1nc(N[C@@H]2CN(S(C)(=O)=O)C[C@H]2F)c2ncn(C(C)C)c2n1` [Example 33, (R)-2-((6-(((3R,4R)-4-fluoro-1-(methylsulfonyl)pyrrolidin-3-yl)amino)-9-isopropyl-9H-purin-2-yl)amino)-3-methylbutan-1-ol], the IC50 in [1] (MCF7, 2 hours) was 0.752 µM; in data set [2], 5.75 µM; in data set [4] it was above 30 µM; in data set [6], 0.88 µM; in data set [7] it was 2.97 µM; in data set [8], 0.026 µM. The IC50 in data set [9] turned out to be 8.1 µM.
As to `CC[C@H](CO)Nc1nc(N[C@H]2CCN(S(C)(=O)=O)C2)c2ncn(CC)c2n1` [Example 38, (R)-2-((9-ethyl-6-(((S)-1-(methylsulfonyl)pyrrolidin-3-yl)amino)-9H-purin-2-yl)amino)butan-1-ol], the IC50 in [1] (MCF7, 2 hours) was 0.392 µM; in data set [2] it was 1.04 µM; in data set [4], above 30 µM; in data set [6], 0.782 µM; in [7] it was 2.31 µM; in data set [8], 0.021 µM. In addition, the IC50 in data set [9] stood at 6 µM.
As to `CC[C@H](Nc1nc(N[C@H]2CCN(S(=O)(=O)NC)C2)c2ncn(CF)c2n1)[C@@H](C)O` [Example 54, (S)-3-((9-(fluoromethyl)-2-(((2R,3S)-2-hydroxypentan-3-yl)amino)-9H-purin-6-yl)amino)-N-methylpyrrolidine-1-sulfonamide], the IC50 was 0.334 µM in data set [1] (MCF7, 2 hours); above 30 µM in data set [4]; 0.756 µM in data set [6]; 1.37 µM in data set [7]. In data set [5], this molecule yielded a solubility at 24 h of 593 µM (≈ 255 µg/mL).
Take `CC[C@H](Nc1nc(N[C@H]2CCN(S(=O)(=O)NC)C2)c2ncn(C(F)F)c2n1)[C@@H](C)O` [Example 55, (S)-3-((9-(difluoromethyl)-2-(((2R,3S)-2-hydroxypentan-3-yl)amino)-9H-purin-6-yl)amino)-N-methylpyrrolidine-1-sulfonamide]: the IC50 amounted to 0.142 µM in data set [1] (MCF7, 2 hours); 14.4 µM in [4]; 0.147 µM in data set [6]; 0.514 µM in [7]. In data set [5], this molecule displayed a solubility at 24 h above 1000 µM.
